Reference: patent publication US12325646B2, “Fertigation water treatment” (UNIVERSITY OF GUELPH, priority 2019, dated 2025)
Values after ≈ are worked out from the molar mass of the structure shown. Values joined by “and” are separate entries in the source; they are usually repeats but may differ in a detail not shown here. Identical values can stand only once. “Also recorded” adds a separate entry of the source. Like-named read-outs stand apart in the source and are kept apart here.

How the values were obtained:
[1] = Electrochemical treatment of chemical standards in batch cell (DSA or BDD anodes); assay type: physicochemical; set-up: reduction of compound in solution: concentration or dose not given beside the values; details: for NPOC decrease / TN decrease: 2.27 mA/cm^2, up to 6-minute contact time, batch cell, 20 mg/L chloride
Description: Initial water treatment was performed by treating the solution by batch cell using the DSA and BDD anodes, as well as stainless steel (SS) cathodes. The experiment used a 2 L beaker and filled the beaker with 1.8 L of deionized water and dissolved the chemical standards glyphosate (45521, Sigma-Aldrich, USA) or paclobutrazol (46046, Sigma-Aldrich, USA) for separate treatments. The solution was constantly mixed using a magnetic stirrer (220T, Fisher Scientific, Canada) and bar during treatment with chemical standards. Samples containing glyphosate and paclobutrazol standards were submitted to the Agriculture and Food Laboratory (University of Guelph) to quantify samples using LC-MS/MS. The mean quantifiable limit for the analytical method was 8 μg/L for glyphosate, AMPA, and paclobutrazol. The non-purgeable organic carbon (NPOC) and total nitrogen (TN) of the solution were determined using a Shimadzu TOC-Vpn & TNM-1 analyzer. A calibration curve (R^2=0.99) was produced before performing the sample analysis using TOC and TN standards.
The degradation of both glyphosate (8.5 mg/L) and paclobutrazol (12 mg/L) was conducted with the use of electrochemical systems for a direct comparison on their efficacies in a batch cell configuration. […] The NPOC and TN had larger decreases between the 3 and 6-minute contact time with the DSA electrodes for glyphosate, while the changes were more subtle using BDD electrodes.

Lemna minor [2] = test: Water treatment of commercial pesticide solutions in the EFC followed by Lemna minor growth test; assay type: in vivo
Lemna minor [3] = test: Lemna minor bioassay (dose-response, 7-day growth); assay type: in vivo; details: for EC50: 168 h, read-out: EC50 dose from dose-response analysis of Lemna minor growth
Source text: A sterile culture of Lemna minor was obtained from the laboratory of Dr. Ryan Prosser (University of Guelph, School of Environmental Science). The culture was transferred to a 1 L Erlenmeyer flask containing a ½ strength Hoagland solution. The cultures were transferred to a growth chamber and were left for a growing period of 7 days. After the growth period, the Erlenmeyer flasks were brought to the lab to use the healthy plants for bioassay and water treatment experiments.
The temperature and humidity sensors were built in house by the Controlled Environment Systems Research Facility (CESRF) at the University of Guelph. The growth chamber conditions for humidity and temperature were recorded using an Acer Aspire 7750 laptop (P7YEO, Acer, Taiwan) and using the Termite software for data logging (version 3.4). The temperature was maintained at 25.68±0.02° C. and the relative humidity was 38.34±0.05%. Lumigrow pro 325 LED lights (LU60001, Lumigrow, USA) were used at a 80:10:10 ratio of Red:Blue:White as overhead lighting for plants (FIGS. 38A & 38B). Furthermore, a grid system inside the growth chamber with 36 grid boxes were used to place Erlenmeyer flasks in a completely randomized design (FIG. 38C). Each ‘grid’ was measured for photosynthetically active radiation (PAR) using a modular spectrometer (USB2000+, Ocean Optics Inc., USA). This allowed to account for random differences attributed to light intensity within the growth chamber. A heat map is generated with this information and in the middle of the ‘grid box’ there was a maximum intensity of […] (FIG. 39).
The analysis of dose-response curves for affecting the growth of Lemna minor was determined using the ‘drc’ package (v. 3.0-1, Christian Ritz, 2016) in the statistical program RStudio (v. 1.0.153, RStudio Inc., USA). The program was used to determine the EC 50 for each measured parameter for plant health and reproduction of the number of plants, number of fronds, and the dry weights of plants contained in each flask.
All solutions were treated with the four different water treatment methods and 75 mL of effluent solution was collected and added in 250 mL Erlenmeyer flasks. Negative control samples only contained 75 mL of deionized water, while all other treatments (positive control, Ozone, AOP, DSA, and BDD) contained 75 mL of the treated and non-treated solution. In a separate 3-litre beaker, a full-strength Hoagland solution was prepared and mixed with a magnetic stirrer (220T, Fisher Scientific, Canada). For each of the Erlenmeyer flasks containing the treated solutions, 75 mL of the Hoagland solution was added into each flask. […] Lemna minor that were previously cultured and acclimated to the ‘Grid box’ were then added to each flask. Two Lemna minor plants with three fronds each were added to flasks for the experiment. All 5 treatments contained 3 Erlenmeyer flasks giving a total of […] and the experiment was performed in triplicate. All of the flasks were placed at random inside the growth chamber within each grid and recorded their location. The pH and electrical conductivity of the solutions were also measured after the 7-day growth period.
Significant differences were only observed at the concentration of 15 mg/L of glyphosate for the final number of fronds and the dry weight of plants (FIGS. 41A & 41B). […] Noticeable differences such as the number of plants, lighter colour of fronds, and spindly roots can be visualized in comparison with the control (FIG. 42A) to the presence of 15 mg/L of glyphosate (FIG. 42B).

[4] = BDD electrodes, 2.27 mA/cm^2, 6-minute contact time, LC-MS/MS
[5] = DSA electrodes, 2.27 mA/cm^2, 6-minute contact time, LC-MS/MS

| reduction of compound in solution [1, 5] | concentration with significant differences for all measured parameters in the health of Lemna minor (Lemna minor [3]; Lemna minor, in vivo, 7 days) | SMILES | increase of AMPA in glyphosate solution ([1]; BDD electrodes, 2.27 mA/cm^2, 0 to 6-minute contact time) | AMPA concentration after treatment of glyphosate solution ([1]; BDD electrodes, 2.27 mA/cm^2, 6 minutes, increased from 0.009) | concentration remaining after treatment, inferred from plant growth (Lemna minor [2]; Roundup, 7 mg/L glyphosate, DSA electrodes, 2.27 mA/cm^2, 1-minute contact time) | reduction of compound in solution [1, 4] | NPOC decrease ([1]; BDD electrodes) | TN decrease ([1]; BDD electrodes) | NPOC decrease ([1]; BDD electrodes, listed as Glyphosate) | level remaining in solution after treatment (below detection limit) [1, 5] | NPOC decrease ([1]; DSA electrodes) | TN decrease ([1]; DSA electrodes) | concentration with significant differences in final number of fronds and dry weight of plants (Lemna minor [3]; Glyfos, 7 days growth) | EC50 (Lemna minor [3]; Lemna minor) | concentration remaining after treatment, inferred from plant growth parameters (Lemna minor [2]; Bonzi, 3 mg/L paclobutrazol, BDD electrodes, recirculated 3 passes, 18 minutes total contact) | EC50 (Lemna minor [3]; Lemna minor, 7 days in growth chamber, glyphosate as Glyfos, paclobutrazol as Bonzi, drc package) | LOEC levels (Lemna minor [3]; Lemna minor, in vivo, 7 days) | effect on plant physiological and reproductive health parameters vs control (Lemna minor [3]; in vivo) |
| --- | --- | --- | --- | --- | --- | --- | --- | --- | --- | --- | --- | --- | --- | --- | --- | --- | --- | --- |
|  |  | NCP(=O)(O)O [AMPA, aminomethylphosphonic acid] | 0.10 mg/L | 0.11 mg/L |  |  |  |  |  |  |  |  |  |  |  |  |  |  |
|  |  | O=C(O)CNCP(=O)(O)O [glyphosate, N-(phosphonomethyl)glycine] |  |  | lower than 2.5 mg/L | 72.47% and 72% | 19.73% | 32.61% and 32% | 20% | < 8 ng/mL | 16.18% and 16% | 85.97% and 86% | 15000 ng/mL | ~9 µg/mL (≈ 53.2 µM) |  |  |  |  |
| 28.29% and 28% | 50 ng/mL | CC(C)(C)[C@@H](O)[C@@H](Cc1ccc(Cl)cc1)n1cncn1 (racemic) [paclobutrazol] |  |  |  | 80.94% and 81% | 18.41% and 18% | 22.58% and 23% |  |  | unaffected; also recorded: no significant effect | 7.12% and 7% |  |  | lower than 0.05 mg/L | 0.01 µg/mL (≈ 0.034 µM) | 0.01 mg/L | Significant decreases were observed for all tested concentrations |
